Assay results: paper PMC5591184 (2017)

Legend:
[1] = test system: T-G10 (DNA, G4) AGGGTTAGGTTTAGGGTTAGGG; assay: triplet decay, laser flash photolysis; settings: 100 mM NaCl; 10 mM Tris-HCl, 1 mM EDTA, pH 7.5, room temperature; 2 μM ZnTMPyP4; intercalation 53%
[2] = test system: T-G8 (DNA, G4) AGGGTTATGGTTAGGGTTAGGG; assay: triplet decay, laser flash photolysis; settings: 100 mM NaCl; 10 mM Tris-HCl, 1 mM EDTA, pH 7.5, room temperature; 2 μM ZnTMPyP4; intercalation 63%
(TG4T)4 (DNA, G4) TGGGGT = assay: UV-vis absorption titration; settings: 100 mM KCl; 10 mM Tris-HCl, 1 mM EDTA, pH 7.5, room temperature; 2 μM ZnTMPyP4
[3] = test system: AG3(T2AG3)3 (DNA, G4) AGGGTTAGGGTTAGGGTTAGGG; assay: UV-vis absorption titration; settings: 100 mM NaCl; 10 mM Tris-HCl, 1 mM EDTA, pH 7.5, room temperature; 2 μM ZnTMPyP4
[4] = test system: (G4T4G4)2 (DNA, G4) GGGGTTTTGGGG; assay: UV-vis absorption titration; settings: 100 mM NaCl; 10 mM Tris-HCl, 1 mM EDTA, pH 7.5, room temperature; 2 μM ZnTMPyP4

binding [1]: yes
binding [2]: yes
binding constants ((TG4T)4 (DNA, G4) TGGGGT): 1e+06 M⁻¹
binding constants [3]: 3.6e+06 M⁻¹
binding constants [4]: 100000 M⁻¹
Structure (SMILES): C[n+]1ccc(-c2c3nc(c(-c4cc[n+](C)cc4)c4ccc([n-]4)c(-c4cc[n+](C)cc4)c4nc(c(-c5cc[n+](C)cc5)c5ccc2[n-]5)C=C4)C=C3)cc1.O.[Zn+2]
